Experimental data from US20230210819A1, “USE OF BENZISOSELAZOLE DERIVATIVE FOR ANTI-CORONAVIRUS AND CONTROL OF INTERSTITIAL LUNG DISEASE (ILD) RELATED TO CORONAVIRUS” (SHANGHAI YUANXI MEDICINE CORP., priority 2020, published 2023).

system: bleomycin-induced mouse lung disease model; test: Lung and spleen coefficients, 24-h modeling; type: in vivo, C57 mice; details: 90 mg/kg, effect better than that of Dex
Description: Animals of 24-h modeling were randomly divided into 5 groups according to the table below, 3 animals per control group and 5 animals per test group.
Drug administration began 24 h or 7 d after modeling. […] The day of the first administration was counted as D1, the next day as D2, and so forth. The normal groups and Model groups were given 200 µL of normal saline daily by gavage administration.
Method: after being euthanized, the animals were dissected, and the heart, liver, spleen, lung and kidney were weighed.
In this experiment, 105 C57 mice were randomly selected and subjected to organ drip administration of a single dose of bleomycin at 2.5 mg/kg for 24 h or 7 d for induction. After 7 days of induction, 3 model mice were randomly selected and dissected to determine whether the modeling was successful. After modeling, the survival of the mice was recorded. The living states of the mice were observed and their body weight was measured at a fixed time.
A normal control group comprised 3 mice.

How did the “Effect on lung coefficient (in words)” value turn out when O=c1c2ccccc2[se]n1CCCCn1[se]c2ccccc2c1=O [BS1801] was run?
The value was “significantly reduce increases in the lung coefficient”.

biological target: 2019-nCoV 3CLpro protein (Severe acute respiratory syndrome coronavirus 2, UniProt P0DTD1); test: 2019-nCoV 3CLpro protein activity, fluorescence method with fluorescent polypeptide substrate; type: biochemical; details: not given

For O=c1c2ccccc2[se]n1CCCn1[se]c2ccccc2c1=O, which IC50 is on record?
The IC50 was 115 nM.

How did the IC50 turn out when O=c1c2ccccc2[se]n1CCCCCn1[se]c2ccccc2c1=O was run?
Its IC50 is 86.2 nM.

Which IC50 does the source give for O=c1c2ccccc2[se]n1CCCCCCCCCCCCn1[se]c2ccccc2c1=O here?
Its IC50 is 35.6 nM.

O=c1c2cc(O)ccc2[se]n1CCCCn1[se]c2ccc(O)cc2c1=O was tested. Which IC50 did it give?
Its IC50 is 41.5 nM.

How did the IC50 turn out when O=c1c2ccccc2[se]n1-c1ccc(S(=O)(=O)n2[se]c3ccccc3c2=O)cc1 was run?
Its IC50 is 1240 nM.

How did the IC50 turn out when Cc1[nH]c(/C=C2\C(=O)Nc3c(F)cccc32)c(C)c1C(=O)OCCn1[se]c2ccccc2c1=O was run?
The IC50 was 1640 nM.

For O=c1c2ccccc2[se]n1CCSSCCn1[se]c2ccccc2c1=O, which IC50 is on record?
The IC50 was 1460 nM.

How did the IC50 turn out when O=c1c2ccccc2[se]n1CCCCn1[se]c2ccccc2c1=O [drawing 188] was run?
Its IC50 is 111 nM.

same assay, conditions: read-out: IC50 (converted)

With O=c1c2ccccc2[se]n1CCn1[se]c2ccccc2c1=O as the molecule, how does the IC50 read?
Its IC50 is 1230 nM.
